The source of these data is patent publication EP0328029A2, “Cholesterol-esterase colour substrate” (BOEHRINGER MANNHEIM GMBH, priority 1988, dated 1989).

SMILES strings stand for the structures.

Experiment [1] has as its system Cholesterinesterase (Cholesterinesterhydrolase EC 3.1.1.13). Put plainly: Cholesterol esterase colour test according to Example 2 (photometric release of resorufin). Type of experiment: biochemical. To be noted: λ = 571 nm, 25°C, 0,1 M Kalium-Phosphat-Puffer pH 6,8. The protocol:
2 mg Cholesterin-glutarsäureresorufinester werden in 0,5 ml Dioxan und 0,5 ml Thesit® gelöst.
Zur Messung werden 850 µl 0,1 M Kalium-Phosphat-Puffer pH 6,8 und 50 µl der oben beschriebenen Substratlösung in einer Küvette gut durchgemischt. Nach Zugabe von 100 µl Probe (Enzymlösung) wird ΔE/min photometrisch bei λ = 571 nm bestimmt (Temperatur = 25°C).
Bei Auswertung über einen Standard bekannter Cholesterinesteraseaktivität wird die Cholesterinesteraseaktivität der Probe wie folgt berechnet [formula] Eine Berechnung der Cholesterinesteraseaktivität der Probe ist auch nach folgender Formel möglich: [formula] Vges : Gesamtvolumen des Testansatzes [cm³] VProbe : Volumen der Probe [cm³] ε : Extinktionskoeefizient des Chromogens bei 571 nm d : Schichtdicke der Küvette [cm] ΔE/min : Extinktionsänderung pro Minute bei 571 nm
Bei den genannten Reaktionsbedingungen beträgt der Extinktionskoeffizient ε = 60,00·cm² ·µmol⁻¹.
(§1) Zum Vergleich wurde der Cholesterinesterase-Test mit Cholesterinoleat als Substrat durchgeführt (Bergmeyer, Methods of Enzymatic Analysis, 3th.Ed., Vol.II, S. 168) und mit dem Farbtest gemäß Beispiel 2 verglichen und der Korrelationskoeffizient ermittelt. Die Ergebnisse zeigen Tabelle I und Figur 1. TABELLE I

The test system is the same in experiment [2]. Briefly: Cholesterol esterase test with cholesterol oleate as substrate (Bergmeyer UV method, comparison). It is filed as biochemical.
From the text: Bekannt ist die photometrische Bestimmung im UV. Freigesetztes Cholesterin wird mittels Cholesterinoxidase zu Cholestenon oxidiert, das anhand der Absorptionszunahme bei λ = 240 nm gemessen werden kann (Bergmeyer, Methods of Enzymatic Analysis, 3th.Ed., Vol.II, S.168). Alternativ wird das bei dieser Oxidation gebildete Wasserstoff peroxid durch eine Farb-Reaktion bestimmt (Stähler, Med.Lab. 30, 29 (77)). Diese Methoden sind umständlich und ebenfalls störanfällig.
as §1

In the case of `CC(C)CCC[C@@H](C)[C@H]1CC[C@H]2[C@@H]3CC=C4C[C@@H](OC(=O)CCCC(=O)Oc5ccc6nc7ccc(=O)cc-7oc6c5)CC[C@]4(C)[C@H]3CC[C@]12C` [Cholesterin-Glutarsäure-Resorufinester, Cholesterin-glutarsäure-resorufinester], the ΔE/min was 0,009 in experiment [1] (Konz. 1,0 mg/ml); 0,013 in experiment [1] (Konz. 1,3 mg/ml); 0,015 in experiment [1] (Konz. 2,0 mg/ml); 0,033 in experiment [1] (Konz. 5,0 mg/ml); 0,071 in experiment [1] (Konz. 10,0 mg/ml).

For the compound `CCCCCCCC/C=C\CCCCCCCC(=O)O[C@H]1CC[C@@]2(C)C(=CC[C@H]3[C@@H]4CC[C@H]([C@H](C)CCCC(C)C)[C@@]4(C)CC[C@@H]32)C1` [Cholesterin-Oleat, Cholesterinoleat], the ΔE/min in experiment [2] (Konz. 1,0 mg/ml) is recorded as 0,007; in experiment [2] (Konz. 1,3 mg/ml), 0,011; in experiment [2] (Konz. 2,0 mg/ml), 0,015; in experiment [2] (Konz. 5,0 mg/ml), 0,036; in experiment [2] (Konz. 6,6 mg/ml), 0,045; in experiment [2] (Konz. 10,0 mg/ml), 0,072.
